Test results as given in the NIST ThermoML archive (doi:10.1016/j.jct.2012.11.026).

Experiments:
[1] = Solid-liquid equilibrium temperature; conditions: Crystal, visual observation
[2] = Liquid-liquid equilibrium temperature; conditions: Nematic liquid crystal, visual observation

CCCCCOc1ccc(-c2ccc(C#N)cc2)cc1 [4'-pentoxy-4-cyanobiphenyl]
Conditions	Liquid-liquid equilibrium temperature, [2] [K]	Solid-liquid equilibrium temperature, [1] [K]
399 kPa	341.58	326.84
1399 kPa	341.96	327.21
2400 kPa	342.38	327.52
3001 kPa	–	327.72
3400 kPa	–	327.86
3401 kPa	342.75	–
3901 kPa	342.91	–
4401 kPa	343.13	328.2
4902 kPa	343.32	–
5401 kPa	–	328.54
5402 kPa	343.51	–
6402 kPa	–	328.84
6403 kPa	343.9	–
7403 kPa	–	329.23
7404 kPa	344.3	–
8403 kPa	–	329.55
8404 kPa	344.7	–
9405 kPa	345.1	329.86
10005 kPa	345.33	330.08
